Our source for the IC50 values is US20240317744A1, “Bicyclic Ureas As Kinase Inhibitors” (Incyte Corporation, priority 2023, published 2024).

Test [1] deals with T1, catalytic domain (JH1, amino acids 826-1132) of human JAK2 (Homo sapiens, UniProt O60674).
T1 construct: catalytic domain (JH1, amino acids 826-1132) of human JAK2; FLAG (N); biotin (biotinylated); purchased Carna Biosciences 08-445-20N; host or cells: baculovirus expression system
The experiment in a line: JAK2 LanthaScreen JH1 Binding Assay. Particulars: JAK2 JH1 1.5 nM, 50 nM tracer, 2 hours at 25° C.; read-out: JH1 BIND. Summed up: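 FLAG-tagged, biotinylated JAK2 JH1 (aa 826-1132, baculovirus-expressed; 1.5 nM) incubated 2 h at 25° C with compounds, 50 nM fluorescent tracer and 0.5 nM Streptavidin-Tb in Tris pH 7.5 buffer with MgCl2, Brij-35, BSA, EGTA, glycerol, DTT. Nonspecific binding defined with 2 mM ATP; TR-FRET IC50 from four-parameter fit.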
In general terms: TR-FRET usually uses a lanthanide donor and a delayed reading to cut background.

The target of test [2] is catalytic domain (JH1, amino acids 808-1132) of human JAK2 (Homo sapiens, UniProt O60674). The experiment in a line: JAK2 HTRF Enzyme Activity Assay. It is filed as biochemical. Particulars: ATP 30 µM, 60 minutes at 25° C.; read-out: V617F ENZ 30 UM.
In test [3] the target is T2, pseudo-kinase domain (JH2, amino-acids 536-812) of human Wild Type JAK2 (Homo sapiens, UniProt O60674, F794H/W659A/W777A).
T2 construct: pseudo-kinase domain (JH2, amino-acids 536-812 with 3 surface mutations W659A, W777A, F794H); His (C); purchased BPS Bioscience 79463; host or cells: baculovirus expression system
Description: JAK2 LanthaScreen JH2-WT Binding Assay. Particulars: JAK2 JH2-WT 0.145 nM, 50 nM tracer, 1 hour at 25° C.; read-out: JH2 BIND WT. Summed up:
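Compounds, serially diluted, were mixed with 0.145 nM JH2 domain, 50 nM tracer and 0.25 nM streptavidin-Tb cryptate, then incubated 1 hour at 25° C before LanthaScreen reading. Wells containing 2 mM ATP defined non-specific binding. Four-parameter dose-response curves gave IC50.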

In test [4] the target is T3, pseudo-kinase domain (JH2, amino-acids 536-812) of human V617F mutant JAK2 (Homo sapiens, UniProt O60674, F794H/V617F/W659A/W777A).
T3 construct: pseudo-kinase domain (JH2, amino-acids 536-812 with 3 surface mutations W659A, W777A, F794H); His (C); purchased BPS Bioscience 79498; host or cells: baculovirus expression system
The experiment in a line: JAK2 LanthaScreen JH2-V617F Binding Assay. The conditions noted are these: JAK2 JH2-V617F 0.26 nM, 50 nM tracer, 1 hour at 25° C.; read-out: JH2 BIND V617F. Summed up: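 IC50 values came from four-parameter dose-response fits of LanthaScreen signal, read after compounds sat 1 hour at 25° C with 0.26 nM baculovirus-expressed biotinylated protein, 50 nM fluorescent tracer and 0.25 nM streptavidin-Tb cryptate. Non-specific binding was set with 2 mM ATP.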

T1 sequence (O60674 826-1132): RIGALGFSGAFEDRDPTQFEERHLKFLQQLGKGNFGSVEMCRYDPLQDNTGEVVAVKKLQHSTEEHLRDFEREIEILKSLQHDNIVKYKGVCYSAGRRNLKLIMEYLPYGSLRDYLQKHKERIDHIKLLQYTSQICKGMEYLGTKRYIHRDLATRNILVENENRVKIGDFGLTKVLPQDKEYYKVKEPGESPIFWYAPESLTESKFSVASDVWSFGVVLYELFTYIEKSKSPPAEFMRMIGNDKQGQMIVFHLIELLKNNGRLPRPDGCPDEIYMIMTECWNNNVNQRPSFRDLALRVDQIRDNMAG
T3 sequence (O60674 536-812 V617F/W659A/W777A/F794H): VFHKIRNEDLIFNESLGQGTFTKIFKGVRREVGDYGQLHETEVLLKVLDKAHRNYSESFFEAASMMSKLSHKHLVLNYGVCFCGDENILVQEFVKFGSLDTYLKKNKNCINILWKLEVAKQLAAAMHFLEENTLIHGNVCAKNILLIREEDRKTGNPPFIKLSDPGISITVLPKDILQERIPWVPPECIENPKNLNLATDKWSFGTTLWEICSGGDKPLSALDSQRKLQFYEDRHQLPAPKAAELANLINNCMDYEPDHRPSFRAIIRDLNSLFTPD
catalytic domain (JH1, amino acids 808-1132) of human JAK2, sequence (O60674 808-1132 limits assumed): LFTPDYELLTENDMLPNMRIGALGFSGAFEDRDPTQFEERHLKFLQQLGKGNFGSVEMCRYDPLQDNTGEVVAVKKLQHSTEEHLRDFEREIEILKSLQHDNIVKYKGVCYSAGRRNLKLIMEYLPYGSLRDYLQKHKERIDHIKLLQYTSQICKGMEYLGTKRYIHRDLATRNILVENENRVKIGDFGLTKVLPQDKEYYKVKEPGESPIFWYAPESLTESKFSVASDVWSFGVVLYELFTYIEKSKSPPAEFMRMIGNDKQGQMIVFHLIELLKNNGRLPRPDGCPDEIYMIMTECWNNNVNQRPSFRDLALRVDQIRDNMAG
T2 sequence (O60674 536-812 W659A/W777A/F794H): as the sequence (O60674 536-812 V617F/W659A/W777A/F794H) above, with F82V counted along it

Turning to `[2H]C([2H])([2H])n1c(=O)n([C@@H]2CC[C@@H](NC(=O)OC)C2)c2cc(Nc3cc(C(C)(C)O)c4cc(-c5cnn(C)c5)cc(C(F)(F)F)c4n3)ncc21` [Example 94, Methyl ((1R,3R)-3-(6-((4-(2-hydroxypropan-2-yl)-6-(1-methyl-1H-pyrazol-4-yl)-8-(trifluoromethyl)quinolin-2-yl)amino)-3-(methyl-d3)-2-oxo-2,3-dihydro-1H-imidazo[4,5-c]pyridin-1-yl)cyclopentyl)carbamate], the IC50 in test [1] is over 1000 nM; in test [2], over 1000 nM; in test [3], at most 10 nM; in test [4], at most 10 nM.
For the compound `[2H]C([2H])([2H])n1c(=O)n([C@@H]2CC[C@@H](NC(=O)OC)C2)c2cc(Nc3cc(C(=O)N4CCCC(F)(F)C4)c4cccc(C(F)(F)F)c4n3)ncc21` [Example 16, Methyl ((1R,3R)-3-(6-((4-(3,3-difluoropiperidine-1-carbonyl)-8-(trifluoromethyl)quinolin-2-yl)amino)-3-(methyl-d3)-2-oxo-2,3-dihydro-1H-imidazo[4,5-c]pyridin-1-yl)cyclopentyl)carbamate], the IC50 in test [1] is over 1000 nM; in test [2], over 1000 nM; in test [3], at most 10 nM; in test [4] it was at most 10 nM.
For `COC(=O)N[C@@H]1CC[C@@H](n2c(=O)n(C)c3cnc(Nc4cccc(-c5ccc6[nH]nc(C)c6c5)n4)cc32)C1` [Example 7, Methyl ((1R,3R)-3-(3-methyl-6-((6-(3-methyl-1H-indazol-5-yl)pyridin-2-yl)amino)-2-oxo-2,3-dihydro-1H-imidazo[4,5-c]pyridin-1-yl)cyclopentyl)carbamate], the IC50 in test [1] was over 1000 nM; in test [2] it was over 1000 nM; in test [3], at most 10 nM; in test [4] it was 10 to 100 nM.
On to `COC(=O)N[C@@H]1CC[C@@H](n2c(=O)n(C)c3cnc(Nc4cc(NC(=O)OC5CCC5)cc(-c5cnn(C)c5)c4)cc32)C1` [Example 56, Methyl ((1R,3R)-3-(6-((3-((cyclobutoxycarbonyl)amino)-5-(1-methyl-1H-pyrazol-4-yl)phenyl)amino)-3-methyl-2-oxo-2,3-dihydro-1H-imidazo[4,5-c]pyridin-1-yl)cyclopentyl)carbamate], for which the IC50 in test [1] is over 1000 nM; in test [2] it was over 1000 nM; in test [3], at most 10 nM; in test [4], at most 10 nM.
As to `[2H]C([2H])([2H])n1c(=O)n([C@@H]2CC[C@@H](NC(=O)OC)C2)c2cc(Nc3cc(C(=O)N4CCOCC4)c(-c4cnn(C)c4)c(OC4CCC4)n3)ncc21` [Example 102, Methyl ((1R,3R)-3-(6-((6-cyclobutoxy-5-(1-methyl-1H-pyrazol-4-yl)-4-(morpholine-4-carbonyl)pyridin-2-yl)amino)-3-(methyl-d3)-2-oxo-2,3-dihydro-1H-imidazo[4,5-c]pyridin-1-yl)cyclopentyl)carbamate], the IC50 is over 1000 nM in test [1], over 1000 nM in test [2], at most 10 nM in test [3] and at most 10 nM in test [4].
On to `[2H]C([2H])([2H])n1c(=O)n([C@@H]2CC[C@@H](NC(=O)OC)C2)c2cc(Nc3cc(CN4CC[C@H](F)C4)cc(-c4ccc5c(c4)OCCO5)n3)ncc21` [Example 70, Methyl ((1R,3R)-3-(6-((6-(2,3-dihydrobenzo[b][1,4]dioxin-6-yl)-4-(((S)-3-fluoropyrrolidin-1-yl)methyl)pyridin-2-yl)amino)-3-(methyl-d3)-2-oxo-2,3-dihydro-1H-imidazo[4,5-c]pyridin-1-yl)cyclopentyl)carbamate], for which the IC50 is over 1000 nM in test [1], over 1000 nM in test [2], at most 10 nM in test [3] and at most 10 nM in test [4].
Take `C#CCOC(=O)N[C@@H]1CC[C@@H](n2c(=O)n(C)c3cnc(Nc4cc(NC(=O)OC5CCC5)cc(-c5cnn(C)c5)c4)cc32)C1` [Example 47, Prop-2-yn-1-yl ((1R,3R)-3-(6-((3-((cyclobutoxycarbonyl)amino)-5-(1-methyl-1H-pyrazol-4-yl)phenyl)amino)-3-methyl-2-oxo-2,3-dihydro-1H-imidazo[4,5-c)pyridin-1-yl)cyclopentyl)carbamate]: the IC50 was over 1000 nM in test [1], over 1000 nM in test [2], at most 10 nM in test [3] and at most 10 nM in test [4].
`[2H]C([2H])([2H])n1c(=O)n([C@@H]2CC[C@@H](NC(=O)OC)C2)c2cc(Nc3cc(-c4cnccc4C(F)(F)F)c4c(n3)n(-c3cnn(C(F)F)c3)c(=O)n4C)ncc21` [Example 89, Methyl ((1R,3R)-3-(6-((3-(1-(difluoromethyl)-1H-pyrazol-4-yl)-1-methyl-2-oxo-7-(4-(trifluoromethyl)pyridin-3-yl)-2,3-dihydro-1H-imidazo[4,5-b]pyridin-5-yl)amino)-3-(methyl-d3)-2-oxo-2,3-dihydro-1H-imidazo[4,5-c]pyridin-1-yl)cyclopentyl)carbamate]: the IC50 in test [1] was over 1000 nM; in test [2], over 1000 nM; in test [3], at most 10 nM; in test [4], at most 10 nM.
Regarding `[2H]C([2H])([2H])n1c(=O)n([C@@H]2CC[C@@H](NC(=O)OC)C2)c2cc(Nc3ccc4c(n3)c(-c3cnn(C(F)(F)F)c3)nn4CC(C)(C)O)ncc21` [Example 118, Methyl ((1R,3R)-3-(6-((1-(2-hydroxy-2-methylpropyl)-3-(1-(trifluoromethyl)-1H-pyrazol-4-yl)-1H-pyrazolo[4,3-b]pyridin-5-yl)amino)-3-(methyl-d3)-2-oxo-2,3-dihydro-1H-imidazo[4,5-c]pyridin-1-yl)cyclopentyl)carbamate], the IC50 in test [1] was over 1000 nM; in test [2], over 1000 nM; in test [3] it was at most 10 nM; in test [4], at most 10 nM.
With `COC(=O)N[C@@H]1CC[C@@H](n2c(=O)n(C)c3cnc(Nc4ccnc(N5CCC(C(F)(F)F)CC5)n4)cc32)C1` [Example 79, Methyl ((1R,3R)-3-(3-methyl-2-oxo-6-((2-(4-(trifluoromethyl)piperidin-1-yl)pyrimidin-4-yl)amino)-2,3-dihydro-1H-imidazo[4,5-c]pyridin-1-yl)cyclopentyl)carbamate], the IC50 is over 1000 nM in test [1], over 1000 nM in test [2], at most 10 nM in test [3] and at most 10 nM in test [4].
With `Cn1c(=O)n(C2CCCC2)c2cc(Nc3cc(NC(=O)OC4CCC4)cc(-c4cnn(C5CC5)c4)c3)ncc21` [Example 61, Cyclobutyl (3-((1-cyclopentyl-3-methyl-2-oxo-2,3-dihydro-1H-imidazo[4,5-c]pyridin-6-yl)amino)-5-(1-cyclopropyl-1H-pyrazol-4-yl)phenyl)carbamate], the IC50 in test [1] was over 1000 nM; in test [2], over 1000 nM; in test [3] it was 10 to 100 nM; in test [4] it was 100 to 500 nM.
Take `Cn1cc(-c2cc(NC(=O)OC3CCC3)cc(Nc3cc4c(cn3)n(C)c(=O)n4[C@@H]3CC[C@@H](NC(=O)OC4CCC4)C3)c2)cn1` [Example 45, Cyclobutyl ((1R,3R)-3-(6-((3-((cyclobutoxycarbonyl)amino)-5-(1-methyl-1H-pyrazol-4-yl)phenyl)amino)-3-methyl-2-oxo-2,3-dihydro-1H-imidazo[4,5-c]pyridin-1-yl)cyclopentyl)carbamate]: the IC50 in test [1] is over 1000 nM; in test [2], over 1000 nM; in test [3] it was 10 to 100 nM; in test [4], 10 to 100 nM.
Turning to `[2H]C([2H])([2H])n1c(=O)n([C@@H]2CC[C@@H](NC(=O)OC)C2)c2cc(Nc3cc(C(C)(C)O)cc(-c4ncc(C(F)(F)F)s4)n3)ncc21` [Example 100, Methyl ((1R,3R)-3-(6-((4-(2-hydroxypropan-2-yl)-6-(5-(trifluoromethyl)thiazol-2-yl)pyridin-2-yl)amino)-3-(methyl-d3)-2-oxo-2,3-dihydro-1H-imidazo[4,5-c]pyridin-1-yl)cyclopentyl)carbamate], the IC50 in test [1] was over 1000 nM; in test [2], over 1000 nM; in test [3], at most 10 nM; in test [4], at most 10 nM.
